Data reported in patent publication US9757457B2, “Use of 2-deoxy-D-glucose to sensitize cancer cells to an agent that activates the extrinsic apoptotic pathway” (The Board of Trustees of the University of Illinois, priority 2013, dated 2017).

Key:
[1] = clinical trials; cited from earlier work
DR4 = test: Death receptor expression in HT29 cells after 2DG: DR4; assay type: cell-based, human; settings: HT29 cells after treatment with 2DG
Protocol: (§1) TRAIL mediates its effects by binding to cell surface death receptors 4 and 5 (DR4, DR5). This initiates the extrinsic apoptosis pathway ultimately resulting in cell death. Therefore, it was determined whether 2DG primes tumor cells to TRAIL by altering DR expression in HT29 cells. […] By comparison, DR4 levels were unchanged by 2DG treatment. In addition, increased surface expression of DR5 correlated with TRAIL sensitivity over time.

DR5 = test: Death receptor expression in HT29 cells after 2DG: DR5; assay type: cell-based, human; settings: HT29 cells after treatment with 2DG
Protocol: as §1

HT29 cells = test: Tumor cell apoptosis in HT29 colon cancer cells (Annexin V flow cytometry; caspase-3 activation); assay type: cell-based, human; settings: for tumor cell apoptosis: HT29 cells, any dose, Annexin V staining, flow cytometry
Protocol: FIG. 2A, HT-29 cells were treated with a general caspase inhibitor (Q-VD-OPh) and simultaneously treated with the indicated compounds. Apoptosis was assessed by Annexin V/PI staining. FIG. 2B, HT-29 cells were stably transfected with CrmA, DN-FADD plasmid constructs (a dominant-negative variant of FAS-associated via death domain protein) or an empty vector. These cell lines, as well as untransfected cells, were then treated with the indicated compounds and apoptosis was assessed by Annexin V/PI staining. n=3, * indicates p<0.05, ** indicates p<0.01, ns indicates p>0.05.
(§2) While this makes TRAIL a promising anti-cancer therapy, there are numerous examples of both inherent and acquired resistance to TRAIL treatment. […] It was posited that this may have been due to either inherent or acquired TRAIL resistance. Therefore, a panel of well-established human colorectal tumor cell lines (HT-29, COLO-205 and SW-620) was analyzed to determine TRAIL sensitivity. […] Therefore, this human cell line was selected for use as a model for in vitro experiments.
To assess the effect of 2DG on HT29 cells, HT29 cells were treated with increasing doses (0-50 mM) of 2DG in vitro.
(§3) To assess the effect of TRAIL on colon (HT29, COLO-205, SW-620), gastric (AGS) and pancreatic (PANC-1) cancer cell lines, cells were treated with increasing doses (0, 6.25, 12.5, 25, 50 and 100 ng/mL) of TRAIL in vitro.
To determine the mechanism of apoptosis, HT-29 and SW-620 cells were treated every 6 hours with 2DG, TRAIL or 2DG and TRAIL. […] HT-29 cells were also fractionated into cytoplasmic and membrane-heavy fractions, with COXIV as a marker of the membrane heavy fraction and beta actin as a loading control.
as §1

SW-620 = test: Tumor cell apoptosis in SW-620 colon cancer cells (Annexin V flow cytometry; caspase-3 activation); assay type: cell-based, human; settings: TRAIL 0-100 ng/mL, any dose, Annexin V staining
Protocol: as §2, §3

COLO-205 = test: Tumor cell apoptosis in COLO-205 colon cancer cells (Annexin V flow cytometry); assay type: cell-based, human; settings: TRAIL 0-100 ng/mL, any dose, Annexin V staining
Protocol: as §2, §3

[2] = system: PANC-1 pancreatic cancer cell line; test: Tumor cell apoptosis in PANC-1 pancreatic cancer cell line (Annexin V flow cytometry; caspase-3 activation); assay type: cell-based; settings: TRAIL 0-100 ng/mL, any dose, Annexin V staining
Protocol: as §3

[3] = system: human cancer patients with various tumor histologies; settings: phase I trial, cited from earlier work
[4] = system: AGS gastric cancer cell line; test: Tumor cell apoptosis in AGS gastric cancer cell line (Annexin V flow cytometry; caspase-3 activation); assay type: cell-based; settings: TRAIL 0-100 ng/mL, any dose, Annexin V staining
Protocol: as §3

Compound: OCC1OC(O)CC(O)[C@@H]1O (stereo in doubt) [2DG, 2-deoxy-D-glucose]
- tolerability [1]: well-tolerated
- DR4 levels (DR4): unchanged
- DR5 mRNA level (DR5): upregulated
- DR5 total protein level (DR5): upregulated
- tumor cell apoptosis (HT29 cells; 2DG 0-50 mM): ≤ 5%

Compound: CC(=O)N[C@@H](CS)C(=O)O [N-acetylcysteine]
- effect on cytotoxicity of 2DG and oxaliplatin (human colon cancer cells): can abrogate this cytotoxicity

Compound: CC(C)[C@H](NC(=O)c1ccc2ccccc2n1)C(=O)N[C@@H](CC(=O)O)C(=O)COc1c(F)cccc1F [Q-VD-OPh]
- effect of caspase blockade on anti-tumor effect of 2DG and TRAIL (HT29 cells; HT-29, simultaneous treatment with 2DG and TRAIL, Annexin V/PI staining, FIG. 2A): inhibited the anti-tumor effect of the combination treatment

Compound: TRAIL: TNF-related apoptosis-inducing ligand; cytokine that causes apoptosis by binding death receptors DR4 and DR5
- tumor cell apoptosis (SW-620): ≤ 12%
- tumor cell apoptosis (COLO-205): ≤ 12%
- tumor cell apoptosis [2]: ≤ 12%
- tumor cell apoptosis (HT29 cells; TRAIL 0-100 ng/mL): ≤ 12%
- TRAIL sensitivity (TRAIL-induced apoptosis) (HT29 cells; HT-29 cell line, maximal doses): resistance to TRAIL at even maximal doses
- tolerability [3]: well-tolerated
- objective tumor response ([3]; patients with colorectal cancer): none of the patients with colorectal cancer had an objective tumor response
- tumor cell apoptosis [4]: ≤ 12%
